Measurements published in patent US20260200939A1, “MOLECULAR GLUE DEGRADER COMPOUNDS AND USES THEREOF” (Novartis AG, priority 2022, published 2026).
Blank lines part the entries; values can stand above or below the compound they belong to.

Legend:
Recombinant RNF126 = biological target: T1, Recombinant RNF126 (Homo sapiens, UniProt Q9BV68); assay: RNF126 Binding Assay, gel-based ABPP
T1 construct: FLAG (C); host or cells: HEK293T
In short: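 FLAG-tagged human RNF126, expressed in HEK293T and purified on anti-FLAG resin, was pretreated with DMSO or covalent ligand for 30 min at 37 °C in PBS. IA-rhodamine was then added for 1 h at RT in the dark. Probe labelling was read by SDS-PAGE in-gel fluorescence.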

[1] = biological target: T2, cysteine 32 (C32) on the RING-family E3 ubiquitin ligase RNF126 (Homo sapiens, UniProt Q9BV68); assay: isoTOP-ABPP chemoproteomic profiling in C33A cells; assay type: cell-based; conditions: C33A cells treated in situ
T2 construct: endogenous in cells; host or cells: C33A
Description: IsoTOP-ABPP studies were done as previously reported (Weerapana, E. et al. Nature 468, 790-795 (2010); Spradlin, J. N. et al. Nat. Chem. Biol. 15, 747-755 (2019); Grossman, E. A. et al. Cell Chem. Biol. 24, 1368-1376.e4 (2017)). All of the isoTOP-ABPP datasets were prepared as described below using the IA-alkyne probe. Cells were lysed by probe sonication in PBS and protein concentrations were measured by BCA assay. Cells were treated for 2 h with either DMSO vehicle or compound before cell collection and lysis. Proteomes were subsequently labeled with IA-alkyne labeling (200 μM) for 1 h at room temperature. CuAAC was used by sequential addition of tris(2-carboxyethyl)phosphine (1 mM, Strem, 15-7400), tris[(1-benzyl-1H-1,2,3-triazol-4-yl)methyl]amine (34 μM, Sigma, 678937), copper(II) sulfate (1 mM, Sigma, 451657) and biotin-linker-azide—the linker functionalized with a tobacco etch virus (TEV) protease recognition sequence as well as an isotopically light or heavy valine for treatment of control or treated proteome, respectively. After CuAAC, proteomes were precipitated by centrifugation at 6,500 g, washed in ice-cold methanol, combined in a 1:1 control:treated ratio, washed again, then denatured and resolubilized by heating in 1.2% SDS-PBS to 90° C. for 5 min. Insoluble components were precipitated by centrifugation at 6,500 g and soluble proteome was diluted in 5 ml 0.2% SDS-PBS. […]

pure RNF126 protein = biological target: T3, pure RNF126 protein (Homo sapiens, UniProt Q9BV68); assay: Mass spectrometry analysis of compound-labeled RNF126 tryptic digests; assay type: binding
T3 construct: FLAG (C); host or cells: HEK293T

CDK4 = biological target: T4, CDK4 (Homo sapiens, UniProt P11802); assay: RNF126 knockdown study of CDK4 degradation in C33A cells; assay type: cell-based
T4 construct: endogenous in cells; host or cells: C33A
Description: (§1) Proteins were resolved by SDS/PAGE and transferred to nitrocellulose membranes using the Trans-Blot Turbo transfer system (Bio-Rad). Membranes were blocked with 5% BSA in Tris-buffered saline containing Tween 20 (TBS-T) solution for 30 min at RT, washed in TBS-T, and probed with primary antibody diluted in recommended diluent per manufacturer overnight at 4° C. After 3 washes with TBS-T, the membranes were incubated in the dark with IR680- or IR800-conjugated secondary antibodies at 1:10,000 dilution in 5% BSA in TBS-T at RT for 1 h. After 3 additional washes with TBST, blots were visualized using an Odyssey Li-Cor fluorescent scanner. The membranes were stripped using ReBlot Plus Strong Antibody Stripping Solution (EMD Millipore) when additional primary antibody incubations were performed. Antibodies used in this study were CDK4 (Abcam ab108357), Vinculin (Abcam ab129002), GAPDH (Cell Signaling Technology 14C10), RNF126 (Santa Cruz Biotechnology sc-376005), BRD4 (Abcam ab128874), Beta Actin (Cell Signaling Technology 13E5), PDE5 (Abcam ab259945), AR-V7 (Abcam ab273500), c-Abl (Santa Cruz Biotechnology sc-23), SMARCA2 (Abcam ab240648), LRRK2 (Abcam ab133474), BTK (Cell Signaling Technology D3H5), Androgen Receptor (Abcam ab133273).
Short-hairpin oligonucleotides were used to knock down the expression of RNF126 in C33A cells. […]

BCR-ABL = biological target: T5, BCR-ABL (Homo sapiens, UniProt P00519); assay: BCR-ABL degradation, Western blotting; assay type: cell-based
T5 construct: BCR (N-terminal part of P11274, natural fusion partner); endogenous in cells; host or cells: K562 (inferred); the other entry of the earlier key: BCR (P11274, Breakpoint cluster region protein)
Description: (§2) C33A cells were purchased from American Type Culture Collection (ATCC) and were cultured in Dulbecco's Modified Eagle Medium (DMEM) containing 10% (v/v) fetal bovine serum (FBS) and maintained at 37° C. with 5% CO2. 22RV1 cells were purchased from the ATCC and were cultured in RPMI-1640 Medium containing 10% (v/v) FBS and maintained at 37° C. with 5% CO2. HEK293T cells were obtained from the UC Berkeley Cell Culture Facility and were cultured in DMEM containing 10% (v/v) FBS and maintained at 37° C. with 5% CO2. K562 cells were obtained from the UC Berkeley Cell Culture Facility and were cultured in Iscove's Modified Dulbecco's Medium (IMDM) containing 10% (v/v) FBS and maintained at 37° C. with 5% CO2. MV-4-11 cells were obtained from the ATCC and were cultured in IMDM containing 10% (v/v) FBS and maintained at 37° C. with 5% CO2. A549 cells were obtained from the ATCC and were cultured in F-12K Medium containing 10% (v/v) FBS and maintained at 37° C. with 5% CO2. Mino cells were obtained from the ATCC and were cultured in RPMI-1640 Medium containing 10% (v/v) FBS and maintained at 37° C. with 5% CO2. […]
(§3) Cells were washed twice with cold PBS, scraped, and pelleted by centrifugation (700 g, 5 min, 4° C.). […] Proteome concentrations were determined using BCA assay and lysate was diluted to appropriate working concentrations. […]

c-ABL kinase = biological target: T6, c-ABL kinase (Homo sapiens, UniProt P00519); assay: c-ABL degradation, Western blotting; assay type: cell-based
T6 construct: endogenous in cells; host or cells: K562 (inferred)
Description: as §2, §3

PDE5 = biological target: T7, PDE5 (Homo sapiens, UniProt O76074); assay: PDE5 degradation in HEK293T cells, Western blotting; assay type: cell-based
T7 construct: endogenous in cells; host or cells: HEK293T
Description: as §2, §3

LRRK2 = biological target: T8, LRRK2 (Homo sapiens, UniProt Q5S007); assay: LRRK2 loss in A549 lung cancer cells, Western blotting; assay type: cell-based
T8 construct: endogenous in cells; host or cells: A549
Description: as §2, §3

Androgen Receptor = Androgen Receptor Degradation assay, Western blotting; assay type: cell-based; conditions: LNCaP and 22RV1 prostate cancer cells
Description: C33A cells were purchased from American Type Culture Collection (ATCC) and were cultured in Dulbecco's Modified Eagle Medium (DMEM) containing 10% (v/v) fetal bovine serum (FBS) and maintained at 37° C. with 5% CO2. 22RV1 cells were purchased from the ATCC and were cultured in RPMI-1640 Medium containing 10% (v/v) FBS and maintained at 37° C. with 5% CO2. HEK293T cells were obtained from the UC Berkeley Cell Culture Facility and were cultured in DMEM containing 10% (v/v) FBS and maintained at 37° C. with 5% CO2. K562 cells were obtained from the UC Berkeley Cell Culture Facility and were cultured in Iscove's Modified Dulbecco's Medium (IMDM) containing 10% (v/v) FBS and maintained at 37° C. with 5% CO2. MV-4-11 cells were obtained from the ATCC and were cultured in IMDM containing 10% (v/v) FBS and maintained at 37° C. with 5% CO2. A549 cells were obtained from the ATCC and were cultured in F-12K Medium containing 10% (v/v) FBS and maintained at 37° C. with 5% CO2. Mino cells were obtained from the ATCC and were cultured in RPMI-1640 Medium containing 10% (v/v) FBS and maintained at 37° C. with 5% CO2. LNCaP cells were obtained from the ATCC and were cultured in RPMI-1640 Medium containing 10% (v/v) FBS and maintained at 37° C. with 5% CO2. Unless otherwise specified, all cell culture materials were purchased from Gibco. It is not known whether HEK293T cells are from male or female origin.
Cells were washed twice with cold PBS, scraped, and pelleted by centrifugation (700 g, 5 min, 4° C.). Pellets were resuspended in PBS, sonicated, clarified by centrifugation (12,000 g, 10 min, 4° C.), and lysate was transferred to new low-adhesion microcentrifuge tubes. Proteome concentrations were determined using BCA assay and lysate was diluted to appropriate working concentrations.
as §1

AR-V7 = biological target: T9, AR-V7 (Homo sapiens, UniProt P10275); assay: AR-V7 degradation in prostate cancer cells, Western blotting; assay type: cell-based; conditions: LNCaP and 22RV1 prostate cancer cells
T9 construct: endogenous in cells; host or cells: 22RV1 and/or LNCaP
T9 sequence (P10275 1-644 isoform P10275-3): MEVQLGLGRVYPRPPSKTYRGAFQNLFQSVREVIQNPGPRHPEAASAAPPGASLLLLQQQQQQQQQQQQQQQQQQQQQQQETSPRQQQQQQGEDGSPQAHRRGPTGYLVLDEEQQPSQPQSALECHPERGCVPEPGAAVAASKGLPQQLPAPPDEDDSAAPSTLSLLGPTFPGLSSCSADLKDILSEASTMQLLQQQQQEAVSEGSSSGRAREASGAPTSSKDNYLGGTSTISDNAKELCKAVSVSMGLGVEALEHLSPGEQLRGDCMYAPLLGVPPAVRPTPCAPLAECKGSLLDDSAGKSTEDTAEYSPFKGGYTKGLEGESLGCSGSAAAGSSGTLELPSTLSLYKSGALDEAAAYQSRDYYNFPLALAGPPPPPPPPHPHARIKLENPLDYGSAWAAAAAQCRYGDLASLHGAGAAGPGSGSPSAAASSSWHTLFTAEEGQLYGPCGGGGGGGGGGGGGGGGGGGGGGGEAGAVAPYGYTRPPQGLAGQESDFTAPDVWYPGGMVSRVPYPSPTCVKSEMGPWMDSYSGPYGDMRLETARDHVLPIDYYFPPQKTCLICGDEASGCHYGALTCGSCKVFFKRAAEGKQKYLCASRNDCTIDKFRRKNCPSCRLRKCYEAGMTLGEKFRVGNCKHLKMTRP
Description: as §2, §3

T1 sequence (Q9BV68 whole entry): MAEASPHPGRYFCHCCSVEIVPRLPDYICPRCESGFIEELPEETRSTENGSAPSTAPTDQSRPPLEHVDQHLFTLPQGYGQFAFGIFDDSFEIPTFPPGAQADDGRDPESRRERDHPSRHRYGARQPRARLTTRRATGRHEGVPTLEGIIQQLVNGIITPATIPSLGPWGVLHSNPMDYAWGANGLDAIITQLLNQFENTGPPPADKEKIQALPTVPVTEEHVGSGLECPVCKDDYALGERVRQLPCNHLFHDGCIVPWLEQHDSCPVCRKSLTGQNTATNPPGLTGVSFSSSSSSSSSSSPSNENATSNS
T6 sequence (P00519 whole entry): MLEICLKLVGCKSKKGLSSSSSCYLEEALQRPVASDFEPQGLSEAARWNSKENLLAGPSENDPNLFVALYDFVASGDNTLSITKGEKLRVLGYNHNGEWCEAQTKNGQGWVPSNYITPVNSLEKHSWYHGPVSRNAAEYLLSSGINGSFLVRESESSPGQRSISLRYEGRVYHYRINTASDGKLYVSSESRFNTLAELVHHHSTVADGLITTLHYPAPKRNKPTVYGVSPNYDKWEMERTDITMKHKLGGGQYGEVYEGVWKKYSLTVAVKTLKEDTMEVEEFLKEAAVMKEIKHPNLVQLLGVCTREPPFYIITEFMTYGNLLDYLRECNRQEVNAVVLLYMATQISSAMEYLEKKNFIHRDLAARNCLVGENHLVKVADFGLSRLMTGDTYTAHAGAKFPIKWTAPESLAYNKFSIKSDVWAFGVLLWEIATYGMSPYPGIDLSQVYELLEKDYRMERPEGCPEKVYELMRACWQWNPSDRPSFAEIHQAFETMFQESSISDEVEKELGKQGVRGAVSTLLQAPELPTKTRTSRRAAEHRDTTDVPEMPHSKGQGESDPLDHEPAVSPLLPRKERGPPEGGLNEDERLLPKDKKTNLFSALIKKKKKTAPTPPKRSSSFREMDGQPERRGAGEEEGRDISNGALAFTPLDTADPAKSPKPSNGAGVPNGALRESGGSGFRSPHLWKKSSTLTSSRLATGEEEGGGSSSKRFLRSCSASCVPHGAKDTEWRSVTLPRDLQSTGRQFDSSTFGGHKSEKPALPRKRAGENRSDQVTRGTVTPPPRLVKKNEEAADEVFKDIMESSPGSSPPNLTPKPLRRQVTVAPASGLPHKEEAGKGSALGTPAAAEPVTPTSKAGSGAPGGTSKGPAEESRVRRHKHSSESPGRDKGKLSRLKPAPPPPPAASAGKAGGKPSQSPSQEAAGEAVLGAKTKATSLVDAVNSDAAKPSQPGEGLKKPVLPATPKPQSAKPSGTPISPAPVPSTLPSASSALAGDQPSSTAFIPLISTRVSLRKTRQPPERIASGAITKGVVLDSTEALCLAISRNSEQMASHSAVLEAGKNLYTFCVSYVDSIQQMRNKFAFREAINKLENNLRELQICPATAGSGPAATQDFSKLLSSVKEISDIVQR
T5 sequence (P00519 with tags, fused parts or gaps): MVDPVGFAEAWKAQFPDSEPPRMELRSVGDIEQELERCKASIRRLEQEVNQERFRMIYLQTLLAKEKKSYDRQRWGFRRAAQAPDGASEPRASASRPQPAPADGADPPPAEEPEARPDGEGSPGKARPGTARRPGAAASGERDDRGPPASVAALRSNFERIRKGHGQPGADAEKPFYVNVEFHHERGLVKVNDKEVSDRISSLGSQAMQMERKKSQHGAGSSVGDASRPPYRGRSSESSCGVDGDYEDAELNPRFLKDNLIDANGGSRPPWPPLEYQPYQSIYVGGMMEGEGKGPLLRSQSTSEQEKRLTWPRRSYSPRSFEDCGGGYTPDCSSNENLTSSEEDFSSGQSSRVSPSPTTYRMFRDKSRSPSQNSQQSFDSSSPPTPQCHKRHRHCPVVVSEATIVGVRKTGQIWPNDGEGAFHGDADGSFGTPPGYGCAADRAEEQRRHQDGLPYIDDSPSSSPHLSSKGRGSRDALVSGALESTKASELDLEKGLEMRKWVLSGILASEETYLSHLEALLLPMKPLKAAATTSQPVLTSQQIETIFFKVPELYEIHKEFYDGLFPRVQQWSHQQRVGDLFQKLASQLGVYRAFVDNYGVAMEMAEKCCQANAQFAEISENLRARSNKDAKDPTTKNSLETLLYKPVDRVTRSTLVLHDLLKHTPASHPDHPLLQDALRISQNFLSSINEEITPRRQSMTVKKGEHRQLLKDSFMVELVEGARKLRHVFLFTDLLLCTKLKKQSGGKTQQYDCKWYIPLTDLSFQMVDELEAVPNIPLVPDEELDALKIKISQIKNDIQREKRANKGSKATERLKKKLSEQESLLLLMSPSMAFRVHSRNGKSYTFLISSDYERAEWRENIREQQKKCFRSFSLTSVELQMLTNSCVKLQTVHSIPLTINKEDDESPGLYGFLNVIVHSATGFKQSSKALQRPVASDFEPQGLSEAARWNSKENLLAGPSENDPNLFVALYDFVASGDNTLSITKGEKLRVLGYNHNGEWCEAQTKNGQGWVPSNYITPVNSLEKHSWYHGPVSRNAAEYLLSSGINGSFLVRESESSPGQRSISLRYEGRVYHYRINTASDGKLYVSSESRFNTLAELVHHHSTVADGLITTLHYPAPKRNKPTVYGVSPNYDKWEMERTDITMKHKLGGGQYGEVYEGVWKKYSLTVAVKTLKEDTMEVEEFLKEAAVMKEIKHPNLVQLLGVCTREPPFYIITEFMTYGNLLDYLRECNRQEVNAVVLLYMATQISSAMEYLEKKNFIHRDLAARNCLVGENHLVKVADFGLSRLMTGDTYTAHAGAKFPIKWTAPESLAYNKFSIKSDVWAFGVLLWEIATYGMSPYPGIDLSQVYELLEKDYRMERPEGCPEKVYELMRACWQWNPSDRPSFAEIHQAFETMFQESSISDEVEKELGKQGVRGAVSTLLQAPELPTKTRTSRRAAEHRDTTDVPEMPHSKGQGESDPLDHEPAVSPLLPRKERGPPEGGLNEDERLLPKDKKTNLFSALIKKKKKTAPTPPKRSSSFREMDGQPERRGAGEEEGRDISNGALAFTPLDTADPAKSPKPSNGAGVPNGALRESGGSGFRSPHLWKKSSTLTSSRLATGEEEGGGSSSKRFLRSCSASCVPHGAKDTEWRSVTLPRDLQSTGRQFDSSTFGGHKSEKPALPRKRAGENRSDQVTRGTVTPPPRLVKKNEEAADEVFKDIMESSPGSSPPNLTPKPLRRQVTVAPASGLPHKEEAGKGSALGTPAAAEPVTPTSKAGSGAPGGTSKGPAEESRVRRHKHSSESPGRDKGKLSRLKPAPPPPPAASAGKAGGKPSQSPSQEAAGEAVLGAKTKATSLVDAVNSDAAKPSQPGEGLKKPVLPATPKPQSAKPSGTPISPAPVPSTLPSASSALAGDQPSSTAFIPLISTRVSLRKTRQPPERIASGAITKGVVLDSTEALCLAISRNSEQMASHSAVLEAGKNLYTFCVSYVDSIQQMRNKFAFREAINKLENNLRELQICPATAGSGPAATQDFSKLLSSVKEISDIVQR
T3 sequence (Q9BV68 whole entry): as the sequence (Q9BV68 whole entry) above

SMILES: COc1ccc(C(=O)/C=C/C(=O)N2CCN(c3cc(Nc4ncc(C(=O)Nc5c(C)cccc5Cl)s4)nc(C)n3)CC2)cc1 [Compound 126]
- binding to RNF126 (gel-based ABPP), in words (Recombinant RNF126): potent binding
- degradation of BCR-ABL, in words (BCR-ABL): degradation of both BCR-ABL and c-ABL kinase in a dose-responsive manner
- degradation of c-ABL kinase, in words (c-ABL kinase): degradation of both BCR-ABL and c-ABL kinase in a dose-responsive manner

SMILES: CCCc1nn(C)c2c(=O)[nH]c(-c3cc(S(=O)(=O)N4CCN(C(=O)/C=C/C(=O)c5ccc(OC)cc5)CC4)ccc3OCC)nc12 [Compound 127]
- binding to RNF126 (gel-based ABPP), in words (Recombinant RNF126): potent binding
- degradation of PDE5, in words (PDE5): degradation of PDE5 in HEK293T cells in a dose-responsive and proteasome-dependent manner

SMILES: COc1ccc(C(=O)/C=C/C(=O)N2CCN(c3ccc(-c4csc(N5CCOCC5)n4)cc3)CC2)cc1 [Compound 133]
- degradation of AR, in words (Androgen Receptor): degradation of AR and AR-V7
- binding to RNF126 (gel-based ABPP), in words (Recombinant RNF126): potent binding
- degradation of AR-V7, in words (AR-V7): degradation of AR and AR-V7

Now from value to compound, other results behind:

- cysteine engaged across the proteome (isoTOP-ABPP) [1]: covalently binds to cysteine 32 (C32)
- effect of RNF126 knockdown on compound-mediated CDK4 degradation (CDK4): completely attenuated
SMILES: CN(C)C(=O)c1cc2cnc(Nc3ccc(N4CCN(C(=O)/C=C/c5ccc(C(F)(F)F)cc5)CC4)cn3)nc2n1C1CCCC1 [Compound 106]
- binding to RNF126 (gel-based ABPP), in words (Recombinant RNF126): confirms the interaction of Compound 106 with RNF126
- adduct on RNF126 by mass spectrometry of tryptic digests (pure RNF126 protein): mass adduct of Compound 106 on pure RNF126 protein is observed

- binding to RNF126 (gel-based ABPP), in words (Recombinant RNF126): potent binding
SMILES: CNc1nc(Nc2ccc(C(=O)N3CCN(C(=O)/C=C/C(=O)c4ccc(OC)cc4)CC3)cc2OC)ncc1Cl [Compound 129]
- loss of LRRK2, in words (LRRK2): loss of LRRK2 in A549 lung cancer cells in a dose-responsive manner
